Earlier results, collected in US8889636B2, “Anti-microbial compositions” (Biotelliga Holdings Limited, priority 2010, dated 2014).
In brackets after ≈: the same amount, converted by molar mass.

What was measured:
[1] = test system: HIV-1 regulatory protein and its viral RNA binding site
[2] = test system: Candidia albacans; conditions: modest antifungal activity

CCC(C)CC(C)/C=C(/C=C(C)/C=C/C=C/C=C/C=C/C=C/c1cc2c(c(=O)o1)[C@H](O)[C@@H](O)[C@H](C(O)C(O)CO)O2)C(=O)O (some centres unmarked) [Orevactaene]
Inhibition of binding of HIV-1 regulatory protein and its viral RNA binding site [1]: found to inhibit binding
MIC [2]: 250 µg/mL (≈ 408 µM)
